Experimental findings from patent US20230085307A1, “PYRIDAZINONE COMPOUND AND HERBICIDE” (NISSAN CHEMICAL CORPORATION, priority 2019, published 2023) are described below.

One test deals with late watergrass. As to the kind of experiment: Test Example 1: herbicidal activity, application before weed generation under submerged conditions (Table 16, symbol A). The class given is in vivo, late watergrass (Echinochloa oryzicola). The procedure, abridged:
(§1)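 Emulsion formulation, water-diluted to set dose, was put onto the flooded surface (4 cm depth, alluvial soil) the same day weeds were sown and 2.5-leaf rice transplanted. After 3 weeks at 25-30 °C under glass, each species was rated 0 (≤5% kill) to 5 (≥90% kill).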

In the next test the test system is Japanese bulrush. In words: Test Example 1: herbicidal activity, application before weed generation under submerged conditions (Table 16, symbol B). The class given is in vivo, Japanese bulrush (Schoenoplectus juncoides). The procedure, abridged: as §1
A further test deals with oval-leafed pondweed. In words: Test Example 1: herbicidal activity, application before weed generation under submerged conditions (Table 16, symbol C). The format is in vivo, oval-leafed pondweed (Monochoria vaginalis). The procedure, abridged: as §1
The subject of test [1] is barnyard grass. In words: Test Example 3: herbicidal effect by foliage application, Wagner pot (Table 18, symbol H). The class given is in vivo, barnyard grass (Echinochloa crus-galli). The method in brief: (§2)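 Plants were sown in alluvial soil held under 0.1–0.5 cm standing water and grown 14 days in a greenhouse at 25–30 °C. An emulsifiable formulation, water-diluted to the set dose, was then sprayed onto the foliage, and effects were scored three weeks later using previously defined criteria.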

For the next test, the system named is Chinese sprangletop. In words: Test Example 3: herbicidal effect by foliage application, Wagner pot (Table 18, symbol D). The class given is in vivo, chinese sprangletop (Leptochloa chinensis). The method in brief:
as §2

Another test deals with rice flat sedge. In words: Test Example 3: herbicidal effect by foliage application, Wagner pot (Table 18, symbol E). The class given is in vivo, rice flat sedge (Cyperus iria). The procedure, abridged: as §2
In another test the test system is southern crabgrass. In words: Test Example 5: herbicidal effect by foliage application, plastic box (Table 20, symbol F). The class given is in vivo, southern crabgrass (Digitaria ciliaris). Conditions: foliage application, three weeks after application. The procedure, abridged: (§3)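 Sow seeds spot-wise in sterilized diluvial soil; cover with ~1.5 cm soil. Grow 14 days in greenhouse, 25° C. to 30° C. Spray foliage with emulsion diluted to predetermined amount. Rate effect after 3 weeks.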

For a further test, the system named is green foxtail. In words: Test Example 5: herbicidal effect by foliage application, plastic box (Table 20, symbol G). The class given is in vivo, green foxtail (Setaria viridis). Conditions: foliage application, three weeks after application. The procedure, abridged: as §3
For test [2], the system named is barnyard grass. As to the kind of experiment: Test Example 5: herbicidal effect by foliage application, plastic box (Table 20, symbol H). The format is in vivo, barnyard grass (Echinochloa crus-galli). Conditions: foliage application, three weeks after application. The procedure, abridged: as §3
The test system of a further test is wild oat. As to the kind of experiment: Test Example 5: herbicidal effect by foliage application, plastic box (Table 20, symbol I). Conditions: foliage application, three weeks after application. The class given is in vivo, wild oat (Avena fatua). The procedure, abridged:
as §3

In a further test the test system is blackgrass. In words: Test Example 5: herbicidal effect by foliage application, plastic box (Table 20, symbol J). The format is in vivo, blackgrass (Alopecurus myosuroides). Conditions: foliage application, three weeks after application. The method in brief: as §3
The subject of another test is Italian ryegrass. As to the kind of experiment: Test Example 5: herbicidal effect by foliage application, plastic box (Table 20, symbol K). The class given is in vivo, Italian ryegrass (Lolium multiflorum). Conditions: foliage application, three weeks after application. The procedure, abridged: as §3
A further test has as its system windgrass. As to the kind of experiment: Test Example 5: herbicidal effect by foliage application, plastic box (Table 20, symbol L). The class given is in vivo, windgrass (Apera spica-venti). Conditions: foliage application, three weeks after application. The method in brief: as §3
The subject of another test is velvetleaf. In words: Test Example 5: herbicidal effect by foliage application, plastic box (Table 20, symbol M). The format is in vivo, velvetleaf (Abutilon theophrasti). Conditions: foliage application, three weeks after application. The procedure, abridged:
as §3

The test system of another test is redroot pigweed. As to the kind of experiment: Test Example 5: herbicidal effect by foliage application, plastic box (Table 20, symbol N). Conditions: foliage application, three weeks after application. The class given is in vivo, redroot pigweed (Amaranthus retroflexus). The procedure, abridged:
as §3

The next test has as its system lambsquarters. As to the kind of experiment: Test Example 5: herbicidal effect by foliage application, plastic box (Table 20, symbol O). The class given is in vivo, lambsquarters (Chenopodium album). Conditions: foliage application, three weeks after application. The procedure, abridged:
as §3

A further test has as its system chickweed. In words: Test Example 5: herbicidal effect by foliage application, plastic box (Table 20, symbol P). The class given is in vivo, common chickweed (Stellaria media). Conditions: foliage application, three weeks after application. The procedure, abridged:
as §3

The test system of the next test is false cleavers. In words: Test Example 5: herbicidal effect by foliage application, plastic box (Table 20, symbol Q). The format is in vivo, false cleavers (Galium spurium). Conditions: foliage application, three weeks after application. The procedure, abridged: as §3
Another test concerns persian speedwell. As to the kind of experiment: Test Example 5: herbicidal effect by foliage application, plastic box (Table 20, symbol R). Conditions: foliage application, three weeks after application. The class given is in vivo, Persian speedwell (Veronica persica). The procedure, abridged: as §3
Setting [3] is: amount of applied herbicide 49 g/ha.
The mark [4] stands for this setting: amount of applied herbicide 45 g/ha.

As to `Cc1nn(C)c(=O)c(-c2c(-c3ccccc3OCC3CC3(F)F)sc3ccccc23)c1O` (centres unmarked) [1-120], the “Herbicidal effect on A: late watergrass (grade 0-5)” value with late watergrass (320 g/ha applied herbicide) was 3 (Herbicidal rate of 40% or more and less than 70%). Besides, the “Herbicidal effect on B: Japanese bulrush (grade 0-5)” value in the test on Japanese bulrush (320 g/ha applied herbicide) is on record as 0 (Herbicidal rate of 5% or less (almost no effect)). Also, the “Herbicidal effect on C: oval-leafed pondweed (grade 0-5)” value with oval-leafed pondweed (320 g/ha applied herbicide) is on record as 0 (Herbicidal rate of 5% or less (almost no effect)). Besides, the “herbicidal effect on H (barnyard grass), rating 0-5” value with barnyard grass [1] (320 g/ha) is 3 (Herbicidal rate of 40% or more and less than 70%). Further, in the test with Chinese sprangletop (320 g/ha), the “herbicidal effect on D (Chinese sprangletop), rating 0-5” value is listed as 0 (Herbicidal rate of 5% or less (almost no effect)). The “herbicidal effect on E (rice flat sedge), rating 0-5” value in the test with rice flat sedge (320 g/ha) was 2 (Herbicidal rate of 20% or more and less than 40%). Further, the “F: southern crabgrass, herbicidal effect” value with southern crabgrass (AAH 320 g/ha) was 0 (Herbicidal rate of 5% or less (almost no effect)). The “G: green foxtail, herbicidal effect” value with green foxtail (AAH 320 g/ha) was 0 (Herbicidal rate of 5% or less (almost no effect)). Further, the “H: barnyard grass, herbicidal effect” value in the test on barnyard grass [2] (AAH 320 g/ha) was 0 (Herbicidal rate of 5% or less (almost no effect)). Besides, the “I: wild oat, herbicidal effect” value in the test on wild oat (AAH 320 g/ha) is 0 (Herbicidal rate of 5% or less (almost no effect)). Besides, the “J: blackgrass, herbicidal effect” value in the test on blackgrass (AAH 320 g/ha) was 2 (Herbicidal rate of 20% or more and less than 40%). In the test on Italian ryegrass (AAH 320 g/ha), the “K: Italian ryegrass, herbicidal effect” value is given as 0 (Herbicidal rate of 5% or less (almost no effect)). The “L: windgrass, herbicidal effect” value with windgrass (AAH 320 g/ha) is recorded as 0 (Herbicidal rate of 5% or less (almost no effect)). The “M: velvetleaf, herbicidal effect” value in the test on velvetleaf (AAH 320 g/ha) was 0 (Herbicidal rate of 5% or less (almost no effect)). Besides, the “N: redroot pigweed, herbicidal effect” value in the test with redroot pigweed (AAH 320 g/ha) is recorded as 0 (Herbicidal rate of 5% or less (almost no effect)). Besides, the “O: lambsquarters, herbicidal effect” value with lambsquarters (AAH 320 g/ha) is 0 (Herbicidal rate of 5% or less (almost no effect)). Besides, the “P: chickweed, herbicidal effect” value with chickweed (AAH 320 g/ha) was 4 (Herbicidal rate of 70% or more and less than 90%). Moreover, the “Q: false cleavers, herbicidal effect” value in the test on false cleavers (AAH 320 g/ha) is 3 (Herbicidal rate of 40% or more and less than 70%). Further, the “R: persian speedwell, herbicidal effect” value in the test with persian speedwell (AAH 320 g/ha) is reported as 5 (Herbicidal rate of 90% or more (almost completely withered)).

Turning to `CCCC(=O)Oc1c(C)nn(C)c(=O)c1-c1c(-c2ccc(C(C)=NOC)cc2)sc2cc(F)ccc12` [3-018], the “Herbicidal effect, A: late watergrass” value in the test on late watergrass (setting [3]) is 3 (Herbicidal rate of 40% or more and less than 70%). Further, the “Herbicidal effect, B: Japanese bulrush” value in the test with Japanese bulrush (setting [3]) is 2 (Herbicidal rate of 20% or more and less than 40%). For the same compound, the “Herbicidal effect, C: oval-leafed pondweed” value in the test on oval-leafed pondweed (setting [3]) is 0 (Herbicidal rate of 5% or less (almost no effect)). Besides, the “herbicidal effect on H: barnyard grass” value with barnyard grass [1] (setting [4]) was 3 (Herbicidal rate of 40% or more and less than 70%). Besides, in the test with Chinese sprangletop (setting [4]), the “herbicidal effect on D: Chinese sprangletop” value is on record as 0 (Herbicidal rate of 5% or less (almost no effect)). The “herbicidal effect on E: rice flat sedge” value in the test with rice flat sedge (setting [4]) was 2 (Herbicidal rate of 20% or more and less than 40%). Also, the “F: southern crabgrass, herbicidal effect grade” value in the test with southern crabgrass (45 g/ha) was 0 (Herbicidal rate of 5% or less (almost no effect)). Further, the “G: green foxtail, herbicidal effect grade” value in the test with green foxtail (45 g/ha) is listed as 0 (Herbicidal rate of 5% or less (almost no effect)). Besides, the “H: barnyard grass, herbicidal effect grade” value in the test with barnyard grass [2] (45 g/ha) is listed as 0 (Herbicidal rate of 5% or less (almost no effect)). Moreover, the “I: wild oat, herbicidal effect grade” value with wild oat (45 g/ha) is 0 (Herbicidal rate of 5% or less (almost no effect)). Moreover, in the test with blackgrass (45 g/ha), the “J: blackgrass, herbicidal effect grade” value is given as 0 (Herbicidal rate of 5% or less (almost no effect)). The “K: Italian ryegrass, herbicidal effect grade” value in the test on Italian ryegrass (45 g/ha) is 0 (Herbicidal rate of 5% or less (almost no effect)). Further, in the test on windgrass (45 g/ha), the “L: windgrass, herbicidal effect grade” value was 0 (Herbicidal rate of 5% or less (almost no effect)). Moreover, in the test with velvetleaf (45 g/ha), the “M: velvetleaf, herbicidal effect grade” value was 0 (Herbicidal rate of 5% or less (almost no effect)). Besides, the “N: redroot pigweed, herbicidal effect grade” value in the test on redroot pigweed (45 g/ha) is 3 (Herbicidal rate of 40% or more and less than 70%). The “O: lambsquarters, herbicidal effect grade” value with lambsquarters (45 g/ha) is 1 (Herbicidal rate of 5% or more and less than 20%). The “P: chickweed, herbicidal effect grade” value with chickweed (45 g/ha) was 1 (Herbicidal rate of 5% or more and less than 20%). In addition, the “Q: false cleavers, herbicidal effect grade” value with false cleavers (45 g/ha) was 0 (Herbicidal rate of 5% or less (almost no effect)). Moreover, in the test on persian speedwell (45 g/ha), the “R: persian speedwell, herbicidal effect grade” value was 3 (Herbicidal rate of 40% or more and less than 70%).
